Key:
[1] = organism: Rattus norvegicus; test: Biodistribution in rat kidney after 90 min time interval; assay type: ADME, organism-based; conditions: in vivo, 1.5 h
[2] = organism: Rattus norvegicus; test: Biodistribution in rat striatum after 5 min time interval; assay type: ADME, organism-based; conditions: in vivo
[3] = organism: Rattus norvegicus; test: Biodistribution in rat plasma after 30 min time interval; assay type: ADME, organism-based; conditions: in vivo, 0.5 h
[4] = organism: Rattus norvegicus; test: Biodistribution in rat pituitary after 5 min time interval; assay type: ADME, organism-based, Pituitary gland; conditions: in vivo
[5] = organism: Rattus norvegicus; test: Biodistribution in rat pons after 5 min time interval; assay type: ADME, organism-based; conditions: in vivo
[6] = organism: Rattus norvegicus; test: Biodistribution in rat pituitary after 60 min time interval; assay type: ADME, organism-based, Pituitary gland; conditions: in vivo, 1 h
[7] = organism: Rattus norvegicus; test: Biodistribution in rat post-CTX after 30 min time interval; assay type: ADME, organism-based; conditions: in vivo, 0.5 h
[8] = organism: Rattus norvegicus; test: Biodistribution in rat thalamus after 5 min time interval; assay type: ADME, organism-based; conditions: in vivo
[9] = organism: Rattus norvegicus; test: Biodistribution in rat testes after 30 min time interval; assay type: ADME, organism-based, Testis; conditions: in vivo, 0.5 h
[10] = organism: Rattus norvegicus; test: Biodistribution in rat anti-CTX after 90 min time interval; assay type: ADME, organism-based; conditions: in vivo, 1.5 h
[11] = organism: Rattus norvegicus; test: Biodistribution in rat thalamus after 15 min time interval; assay type: ADME, organism-based; conditions: in vivo, 0.25 h
[12] = organism: Rattus norvegicus; test: Biodistribution in rat anti-CTX after 60 min time interval; assay type: ADME, organism-based; conditions: in vivo, 1 h
[13] = organism: Rattus norvegicus; test: Biodistribution in rat muscle after 30 min time interval; assay type: ADME, organism-based, Muscle tissue; conditions: in vivo, 0.5 h
[14] = organism: Rattus norvegicus; test: Biodistribution in rat liver after 5 min time interval; assay type: ADME, organism-based; conditions: in vivo
[15] = organism: Rattus norvegicus; test: Biodistribution in rat hypothalamus after 60 min time interval; assay type: ADME, organism-based; conditions: in vivo, 1 h
[16] = organism: Rattus norvegicus; test: Biodistribution in rat thalamus after 90 min time interval; assay type: ADME, organism-based; conditions: in vivo, 1.5 h
[17] = organism: Rattus norvegicus; test: Biodistribution in rat pons after 60 min time interval; assay type: ADME, organism-based; conditions: in vivo, 1 h
[18] = organism: Rattus norvegicus; test: Biodistribution in rat cerebellem after 5 min time interval; assay type: ADME, organism-based, Cerebellum; conditions: in vivo
[19] = organism: Rattus norvegicus; test: Biodistribution in rat lung after 90 min time interval; assay type: ADME, organism-based; conditions: in vivo, 1.5 h
[20] = organism: Rattus norvegicus; test: Biodistribution in rat trachea after 60 min time interval; assay type: ADME, organism-based; conditions: in vivo, 1 h
[21] = organism: Rattus norvegicus; test: Biodistribution in rat intestine after 90 min time interval; assay type: ADME, organism-based; conditions: in vivo, 1.5 h
[22] = organism: Rattus norvegicus; test: Biodistribution in rat plasma after 5 min time interval; assay type: ADME, organism-based; conditions: in vivo
[23] = organism: Rattus norvegicus; test: Biodistribution in rat intestine after 15 min time interval; assay type: ADME, organism-based; conditions: in vivo, 0.25 h
[24] = organism: Rattus norvegicus; test: Biodistribution in rat kidney after 5 min time interval; assay type: ADME, organism-based; conditions: in vivo
[25] = organism: Rattus norvegicus; test: Biodistribution in rat liver after 60 min time interval; assay type: ADME, organism-based; conditions: in vivo, 1 h
[26] = organism: Rattus norvegicus; test: Biodistribution in rat pituitary after 90 min time interval; assay type: ADME, organism-based; conditions: in vivo, 1.5 h
[27] = organism: Rattus norvegicus; test: Biodistribution in rat lung after 15 min time interval; assay type: ADME, organism-based; conditions: in vivo, 0.25 h
[28] = organism: Rattus norvegicus; test: Biodistribution in rat blood after 30 min time interval; assay type: ADME, organism-based; conditions: in vivo, 0.5 h
[29] = organism: Rattus norvegicus; test: Biodistribution in rat post-CTX after 90 min time interval; assay type: ADME, organism-based; conditions: in vivo, 1.5 h
[30] = organism: Rattus norvegicus; test: Biodistribution in rat muscle after 5 min time interval; assay type: ADME, organism-based, Muscle tissue; conditions: in vivo
[31] = organism: Rattus norvegicus; test: Biodistribution in rat adrenal after 5 min time interval; assay type: ADME, organism-based; conditions: in vivo
[32] = organism: Rattus norvegicus; test: Biodistribution in rat muscle after 60 min time interval; assay type: ADME, organism-based, Muscle tissue; conditions: in vivo, 1 h
[33] = organism: Rattus norvegicus; test: Biodistribution in rat post-CTX after 60 min time interval; assay type: ADME, organism-based; conditions: in vivo, 1 h
[34] = organism: Rattus norvegicus; test: Biodistribution in rat plasma after 60 min time interval; assay type: ADME, organism-based; conditions: in vivo, 1 h
[35] = organism: Rattus norvegicus; test: Biodistribution in rat liver after 15 min time interval; assay type: ADME, organism-based; conditions: in vivo, 0.25 h
[36] = organism: Rattus norvegicus; test: Biodistribution in rat pituitary after 15 min time interval; assay type: ADME, organism-based, Pituitary gland; conditions: in vivo, 0.25 h
[37] = organism: Rattus norvegicus; test: Biodistribution in rat trachea after 5 min time interval; assay type: ADME, organism-based; conditions: in vivo
[38] = organism: Rattus norvegicus; test: Biodistribution in rat spleen after 30 min time interval; assay type: ADME, organism-based; conditions: in vivo, 0.5 h
[39] = organism: Rattus norvegicus; test: Biodistribution in rat hippocampus after 15 min time interval; assay type: ADME, organism-based; conditions: in vivo, 0.25 h
[40] = organism: Rattus norvegicus; test: Biodistribution in rat adrenal after 30 min time interval; assay type: ADME, organism-based; conditions: in vivo, 0.5 h
[41] = organism: Rattus norvegicus; test: Biodistribution in rat post-CTX after 15 min time interval; assay type: ADME, organism-based; conditions: in vivo, 0.25 h
[42] = organism: Rattus norvegicus; test: Biodistribution in rat lung after 60 min time interval; assay type: ADME, organism-based; conditions: in vivo, 1 h
[43] = organism: Rattus norvegicus; test: Biodistribution in rat hypothalamus after 5 min time interval; assay type: ADME, organism-based; conditions: in vivo
[44] = organism: Rattus norvegicus; test: Biodistribution in rat testes after 15 min time interval; assay type: ADME, organism-based, Testis; conditions: in vivo, 0.25 h
[45] = organism: Rattus norvegicus; test: Biodistribution in rat lung after 5 min time interval; assay type: ADME, organism-based; conditions: in vivo
[46] = organism: Rattus norvegicus; test: Biodistribution in rat muscle after 90 min time interval; assay type: ADME, organism-based, Muscle tissue; conditions: in vivo, 1.5 h
[47] = organism: Rattus norvegicus; test: Biodistribution in rat heart after 90 min time interval; assay type: ADME, organism-based; conditions: in vivo, 1.5 h
[48] = organism: Rattus norvegicus; test: Biodistribution in rat plasma after 90 min time interval; assay type: ADME, organism-based; conditions: in vivo, 1.5 h
[49] = organism: Rattus norvegicus; test: Biodistribution in rat thalamus after 30 min time interval; assay type: ADME, organism-based; conditions: in vivo, 0.5 h
[50] = organism: Rattus norvegicus; test: Biodistribution in rat adrenal after 15 min time interval; assay type: ADME, organism-based; conditions: in vivo, 0.25 h

Structure (SMILES): [11CH3]Oc1ccc(CCCn2ncc3c2nc(N)n2nc(-c4ccco4)nc32)cc1
- ID/g [1]: 0.11%
- ID/g [2]: 0.43%
- ID/g [3]: 0.08%
- ID/g [4]: 0.18%
- ID/g [5]: 0.2%
- ID/g [6]: 0.02%
- ID/g [7]: 0.05%
- ID/g [8]: 0.2%
- ID/g [9]: 0.23%
- ID/g [10]: 0.02%
- ID/g [11]: 0.1%
- ID/g [12]: 0.02%
- ID/g [13]: 0.05%
- ID/g [14]: 0.94%
- ID/g [15]: 0.02%
- ID/g [16]: 0.02%
- ID/g [17]: 0.02%
- ID/g [18]: 0.19%
- ID/g [19]: 0.23%
- ID/g [20]: 0.04%
- ID/g [21]: 0.16%
- ID/g [22]: 0.19%
- ID/g [23]: 0.28%
- ID/g [24]: 0.69%
- ID/g [25]: 0.36%
- ID/g [26]: 0.03%
- ID/g [27]: 0.52%
- ID/g [28]: 0.06%
- ID/g [29]: 0.02%
- ID/g [30]: 0.15%
- ID/g [31]: 0.85%
- ID/g [32]: 0.04%
- ID/g [33]: 0.02%
- ID/g [34]: 0.07%
- ID/g [35]: 0.74%
- ID/g [36]: 0.06%
- ID/g [37]: 0.17%
- ID/g [38]: 0.07%
- ID/g [39]: 0.09%
- ID/g [40]: 0.25%
- ID/g [41]: 0.1%
- ID/g [42]: 0.37%
- ID/g [43]: 0.16%
- ID/g [44]: 0.13%
- ID/g [45]: 0.38%
- ID/g [46]: 0.02%
- ID/g [47]: 0.04%
- ID/g [48]: 0.07%
- ID/g [49]: 0.05%
- ID/g [50]: 0.44%

Reference: ChEMBL document CHEMBL1133517, “Design, radiosynthesis, and biodistribution of a new potent and selective ligand for in vivo imaging of the adenosine A(2A) receptor system using positron emission tomography” (J Med Chem, 2000)
